Test: xn = mol fraction of the nth substance listed
Conditions: Liquid, Vibrating tube method

CC1(C)C(=O)[C@]2(C)CC[C@H]1C2 [(-)-fenchone] + CCO
mass density [kg/m3]
Conditions | 101 kPa | 20000 kPa | 25000 kPa | 30000 kPa | 35000 kPa | 40000 kPa
313.15 K, x1 = 0.0481 | 791.46 | – | – | – | – | –
313.15 K, x1 = 0.051 | – | 810.1 | 814 | 817.7 | 821.3 | 824.8
313.15 K, x1 = 0.0985 | 808.84 | – | – | – | – | –
313.15 K, x1 = 0.0992 | – | 826.1 | 829.9 | 833.6 | 837.1 | 840.5
313.15 K, x1 = 0.199 | – | 852.8 | 856.5 | 860 | 863.5 | 866.8
313.15 K, x1 = 0.2002 | 836.65 | – | – | – | – | –
313.15 K, x1 = 0.3002 | 857.52 | – | – | – | – | –
313.15 K, x1 = 0.301 | – | 873.6 | 877.2 | 880.6 | 883.9 | 887.1
313.15 K, x1 = 0.3968 | – | 889.1 | 892.6 | 895.9 | 899.2 | 902.4
313.15 K, x1 = 0.4031 | 874.42 | – | – | – | – | –
313.15 K, x1 = 0.4976 | – | 902.4 | 905.9 | 909.2 | 912.4 | 915.5
313.15 K, x1 = 0.5012 | 887.46 | – | – | – | – | –
313.15 K, x1 = 0.5924 | – | 912.6 | 916 | 919.2 | 922.5 | 925.5
313.15 K, x1 = 0.5976 | 898.09 | – | – | – | – | –
313.15 K, x1 = 0.6956 | – | 922 | 925.3 | 928.5 | 931.7 | 934.7
313.15 K, x1 = 0.697 | 907.3 | – | – | – | – | –
313.15 K, x1 = 0.7897 | 914.58 | – | – | – | – | –
313.15 K, x1 = 0.7942 | – | 929.7 | 933 | 936.1 | 939.3 | 942.3
313.15 K, x1 = 0.8929 | – | 936.3 | 939.6 | 942.7 | 945.8 | 948.8
313.15 K, x1 = 0.899 | 922.06 | – | – | – | – | –
313.15 K, x1 = 0.9454 | – | 939.4 | 942.7 | 945.8 | 948.9 | 951.9
313.15 K, x1 = 0.9486 | 925.06 | – | – | – | – | –
313.15 K, x1 = 1 | 928.04 | 942.3 | 945.6 | 948.7 | 951.8 | 954.7
328.15 K, x1 = 0.0481 | 777.95 | – | – | – | – | –
328.15 K, x1 = 0.051 | – | 798 | 802.1 | 806.1 | 810 | 813.7
328.15 K, x1 = 0.0985 | 795.29 | – | – | – | – | –
328.15 K, x1 = 0.0992 | – | 813.9 | 818 | 821.9 | 825.7 | 829.3
328.15 K, x1 = 0.199 | – | 840.6 | 844.6 | 848.3 | 852 | 855.5
328.15 K, x1 = 0.2002 | 823.07 | – | – | – | – | –
328.15 K, x1 = 0.3002 | 844.02 | – | – | – | – | –
328.15 K, x1 = 0.301 | – | 861.4 | 865.3 | 869 | 872.5 | 876
328.15 K, x1 = 0.3968 | – | 876.8 | 880.6 | 884.2 | 887.7 | 891.1
328.15 K, x1 = 0.4031 | 861.01 | – | – | – | – | –
328.15 K, x1 = 0.4976 | – | 890.1 | 893.7 | 897.3 | 900.8 | 904.2
328.15 K, x1 = 0.5012 | 874.13 | – | – | – | – | –
328.15 K, x1 = 0.5924 | – | 900.5 | 904.1 | 907.7 | 911.1 | 914.4
328.15 K, x1 = 0.5976 | 884.87 | – | – | – | – | –
328.15 K, x1 = 0.6956 | – | 910.1 | 913.7 | 917.2 | 920.6 | 923.8
328.15 K, x1 = 0.697 | 894.19 | – | – | – | – | –
328.15 K, x1 = 0.7897 | 901.6 | – | – | – | – | –
328.15 K, x1 = 0.7942 | – | 917.8 | 921.3 | 924.8 | 928.1 | 931.4
328.15 K, x1 = 0.8929 | – | 924.4 | 927.9 | 931.4 | 934.7 | 937.8
328.15 K, x1 = 0.899 | 909.23 | – | – | – | – | –
328.15 K, x1 = 0.9454 | – | 927.7 | 931.2 | 934.5 | 937.8 | 941
328.15 K, x1 = 0.9486 | 912.33 | – | – | – | – | –
328.15 K, x1 = 1 | 915.39 | 930.8 | 934.2 | 937.6 | 940.9 | 944
